Measurements as given in ChEMBL document CHEMBL1201862, “PubChem BioAssay data set” (2004).
Active and inactive are the calls of the source. Cut-off read from the data, not from the text of the source, for most assays here: actives have a measured EC50 and inactives only a lower limit.

Experiments:
Streptococcus = assay: Group A Streptococcus viability loss, dose response, counter-screen for streptokinase expression inhibitor project, luminescence, BacTiterGlo (AID 1915); assay type: functional, organism-based;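 note: potency for reduction of bacterial viability or growth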
[1] = target: T1, Carboxy-terminal domain RNA polymerase II polypeptide A small phosphatase 1 (Homo sapiens, UniProt Q9GZU7); assay: inhibitors of CTDSP1, concentration-response testing, biochemical assay, absorbance-based, actives from ultra-high-throughput screening (AID 540297); assay type: functional
T1 sequence (Q9GZU7 whole entry): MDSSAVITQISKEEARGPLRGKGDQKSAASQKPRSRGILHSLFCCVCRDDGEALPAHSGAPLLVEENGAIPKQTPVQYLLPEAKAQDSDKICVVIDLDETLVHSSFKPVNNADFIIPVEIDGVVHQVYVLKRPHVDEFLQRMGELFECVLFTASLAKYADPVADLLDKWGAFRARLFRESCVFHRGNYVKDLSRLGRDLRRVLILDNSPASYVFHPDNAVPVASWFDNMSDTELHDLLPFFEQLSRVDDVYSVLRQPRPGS

Streptokinase A = target: T2, Streptokinase A (Streptococcus pyogenes serotype M1, UniProt P10520); assay: S. pyogenes streptokinase expression inhibitors, potency, dose response, plasminogen activation absorbance, OD405 (AID 1914); assay type: functional, Streptococcus pyogenes M1 GAS;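 note: secreted streptokinase activity via plasminogen activation per viability signal from cell pellet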
T2 sequence (P10520 whole entry): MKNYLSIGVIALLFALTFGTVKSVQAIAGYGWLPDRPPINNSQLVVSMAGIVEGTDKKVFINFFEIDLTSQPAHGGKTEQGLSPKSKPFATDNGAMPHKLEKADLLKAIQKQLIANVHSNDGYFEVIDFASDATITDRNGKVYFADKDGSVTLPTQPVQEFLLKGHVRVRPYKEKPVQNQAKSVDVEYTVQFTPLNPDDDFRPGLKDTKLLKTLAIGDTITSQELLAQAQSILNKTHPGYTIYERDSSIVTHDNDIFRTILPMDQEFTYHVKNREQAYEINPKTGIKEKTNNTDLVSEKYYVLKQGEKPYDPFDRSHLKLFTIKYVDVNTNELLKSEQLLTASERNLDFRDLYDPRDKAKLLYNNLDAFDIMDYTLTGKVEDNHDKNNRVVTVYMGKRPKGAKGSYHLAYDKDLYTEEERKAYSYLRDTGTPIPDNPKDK

[2] = system: Streptococcus sp. 'group A'; assay: growth inhibition of control SK(-) GAS strain, dose response, counter-screen for streptokinase expression inhibitor project, luminescence, kanamycin, BacTiterGlo, confirmation (AID 1900); assay type: functional, organism-based
[3] = target: FAD-linked sulfhydryl oxidase ALR (Homo sapiens, UniProt P55789); assay: inhibitors of human ALR sulfhydryl oxidase, dose response, biochemical, H2O2 detection, luminescence, cherry-pick (AID 493248)
[4] = growth suppression of beta-catenin-knockout colon cells, dose response, cell-based, HCT116, human colon tumor (AID 1045); assay type: functional;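 note: HCT116 colon tumor cells with beta catenin knocked out; cells exposed to compound for 60 hours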
[5] = growth suppression of PTEN-null colon cells, dose response, cell-based, HCT116 PTEN knockout (AID 1047); assay type: functional;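 note: HCT116 colon tumor cells with PTEN knocked out; cells exposed to compound for 60 hours before readout; potency for loss of cell viability measured by luminescence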
[6] = target: T3, Rac GTPase-activating protein 1 (Homo sapiens, UniProt Q9H0H5); assay: MgcRacGAP GTPase-activating activity inhibitors, confirmation, biochemical, ADP Hunter fluorescence, primary and confirmatory (AID 624330); assay type: functional
T3 sequence (Q9H0H5 whole entry): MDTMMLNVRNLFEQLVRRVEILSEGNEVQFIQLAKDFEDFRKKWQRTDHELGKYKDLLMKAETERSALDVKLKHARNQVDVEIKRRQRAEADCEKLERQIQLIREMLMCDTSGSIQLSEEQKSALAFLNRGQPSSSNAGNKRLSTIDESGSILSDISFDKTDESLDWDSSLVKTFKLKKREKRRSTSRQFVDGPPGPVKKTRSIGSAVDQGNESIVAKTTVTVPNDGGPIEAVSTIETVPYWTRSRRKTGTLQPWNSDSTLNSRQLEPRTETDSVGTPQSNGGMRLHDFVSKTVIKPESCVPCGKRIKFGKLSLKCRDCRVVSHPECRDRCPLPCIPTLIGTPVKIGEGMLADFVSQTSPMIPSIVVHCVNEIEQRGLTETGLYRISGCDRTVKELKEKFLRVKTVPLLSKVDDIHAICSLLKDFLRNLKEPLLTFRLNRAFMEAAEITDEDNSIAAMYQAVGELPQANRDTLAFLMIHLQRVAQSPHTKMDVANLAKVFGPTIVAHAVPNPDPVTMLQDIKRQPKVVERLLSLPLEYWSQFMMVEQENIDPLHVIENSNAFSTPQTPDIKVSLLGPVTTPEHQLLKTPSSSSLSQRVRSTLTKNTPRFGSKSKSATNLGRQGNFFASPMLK

[7] = target: Luciferin 4-monooxygenase (Photinus pyralis, UniProt P08659); assay: firefly luciferase enzyme inhibitors, dose response, biochemical, luminescence (AID 1891)
[8] = Luminescence Cell-Based Dose Confirmation HTS to Identify Inhibitors of Platelet Dense Granule Release. [Related pubchem assays: 1663 (Primary HTS), 1678 (Summary of Project)]; assay type: functional
[9] = inhibitors of SNCA 5'UTR-driven reporter translation, confirmation, H4 neuroglioma cells, luminescence (AID 1988); assay type: functional, cell-based
[10] = inhibitors of firefly luciferase expression or activity, dose response, H4 neuroglioma cells, luminescence (AID 1990); assay type: functional, cell-based
[11] = Luminescence Cell-Based Dose Response HTS to Identify Inhibitors of 5'UTR Stem-Loop Driven Prion Protein mRNA Translation in H4 Neuroglioblastoma Cells. [Related pubchem assays: 1827 (Project Summary), 1813 (Primary HTS)]; assay type: functional
[12] = target: T4, Heat shock factor protein 1 (Mus musculus, UniProt P38532); assay: inhibition of MG132-induced HSE-luciferase signal, confirmation, cell-based, NIH3T3, luminescence, dose retest (AID 2382); assay type: functional;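 note: NIH3T3 fibroblasts with HSF1-driven luciferase reporter stressed by proteasome inhibitor MG132; luminescence from HSF1-driven luciferase expression after 8 hours of MG132 stress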
T4 sequence (P38532 whole entry): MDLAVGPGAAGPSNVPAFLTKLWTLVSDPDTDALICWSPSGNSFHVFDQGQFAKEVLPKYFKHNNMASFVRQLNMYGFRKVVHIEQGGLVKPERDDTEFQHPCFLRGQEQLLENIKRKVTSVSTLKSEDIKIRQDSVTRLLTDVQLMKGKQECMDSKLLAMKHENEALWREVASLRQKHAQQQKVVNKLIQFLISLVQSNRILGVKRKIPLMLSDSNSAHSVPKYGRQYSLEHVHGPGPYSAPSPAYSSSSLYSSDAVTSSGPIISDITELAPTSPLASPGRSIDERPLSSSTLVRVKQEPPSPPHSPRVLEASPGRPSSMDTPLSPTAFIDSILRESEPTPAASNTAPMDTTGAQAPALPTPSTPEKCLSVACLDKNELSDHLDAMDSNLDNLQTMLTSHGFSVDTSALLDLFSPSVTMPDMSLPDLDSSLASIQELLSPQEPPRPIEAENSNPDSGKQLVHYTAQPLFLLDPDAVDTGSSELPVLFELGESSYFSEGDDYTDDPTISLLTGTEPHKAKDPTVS

Sequence of Luciferin 4-monooxygenase (P08659 whole entry): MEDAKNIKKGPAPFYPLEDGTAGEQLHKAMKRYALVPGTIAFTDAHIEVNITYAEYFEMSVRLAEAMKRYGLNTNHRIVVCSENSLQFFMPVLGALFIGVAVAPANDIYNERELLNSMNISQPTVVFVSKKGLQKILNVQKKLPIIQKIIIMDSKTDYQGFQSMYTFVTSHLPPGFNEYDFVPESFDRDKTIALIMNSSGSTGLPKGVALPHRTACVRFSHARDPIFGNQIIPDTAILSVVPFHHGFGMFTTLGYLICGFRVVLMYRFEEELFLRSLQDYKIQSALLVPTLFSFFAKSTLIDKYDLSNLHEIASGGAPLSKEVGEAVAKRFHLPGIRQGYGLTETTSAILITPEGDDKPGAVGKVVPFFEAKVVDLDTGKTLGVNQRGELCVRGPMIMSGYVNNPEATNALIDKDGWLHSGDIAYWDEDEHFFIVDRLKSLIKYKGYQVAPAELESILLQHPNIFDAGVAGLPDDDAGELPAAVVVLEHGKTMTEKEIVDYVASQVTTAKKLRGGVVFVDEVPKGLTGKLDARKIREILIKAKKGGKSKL
Sequence of FAD-linked sulfhydryl oxidase ALR (P55789 whole entry): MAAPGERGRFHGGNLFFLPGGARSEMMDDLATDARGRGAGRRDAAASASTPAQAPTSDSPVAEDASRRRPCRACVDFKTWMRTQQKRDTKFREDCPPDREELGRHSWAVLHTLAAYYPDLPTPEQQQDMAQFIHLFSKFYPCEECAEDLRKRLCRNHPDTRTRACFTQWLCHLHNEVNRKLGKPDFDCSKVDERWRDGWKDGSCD

For COc1ccc(Cn2c(C3CCCCC3)nc3c(c(=O)c4ccccc4n3C)c2=O)cc1, the EC50 (Streptococcus) was 6.96 µM (active), the IC50 [1] was 5.55 µM (active) and the EC50 (Streptokinase A) was > 150 µM (not active). The EC50 [2] was 6.03 µM (active).

For CCCc1cc(C(N)=O)c(NC(=O)c2ccoc2C)s1, the AC50 [3] was 2.74 µM (active).

For COc1cc2nc(S)n3nc(CCn4nc(C)cc4C)nc3c2cc1OC, the EC50 (Streptococcus) was > 150 µM (not active), the EC50 [4] was 25 µM (active) and the EC50 [5] was 14.5 µM (active). For the same molecule, the EC50 (Streptokinase A) was > 150 µM (not active), the IC50 [6] was 23.2 µM (active) and the EC50 [2] was 28.4 µM (active).

In the case of O=C1c2ccccc2C(O)N1CCN1CCOCC1 (configuration not stated), the EC50 [7] is reported as > 112 µM (not active) and the EC50 [8] is reported as > 112 µM (not active).

With Cc1nc(SCc2cccnc2)nc(O)c1C the AC50 [3] was 1.18 µM (active).

With CCCn1nc(NS(=O)(=O)c2ccc(F)cc2)c2cc3ccccc3nc21 the EC50 [7] was > 112 µM (not active) and the EC50 [8] was > 112 µM (not active).

For [O-][S+](c1ccc2ccccc2c1)c1cnns1 (configuration not stated), the AC50 [3] was 0.769 µM (active).

For Fc1ccc(-c2nnc(NC3=NCCCCC3)o2)cc1, the EC50 [7] was 13.9 µM (active), the EC50 [9] was 1.4 µM (active) and the EC50 [10] was 2.66 µM (active). The EC50 [8] was 2.88 µM (active), the EC50 [11] was 0.751 µM (active) and the EC50 [12] was 16 µM (active).

With COc1ccc(N2CCN(CCCNC(=O)C3CCCN(S(=O)(=O)c4c[nH]cn4)C3)CC2)cc1 (configuration not stated) the AC50 [3] was 25.4 µM (active).

In the case of Cc1sc(NC(=O)c2cc(-c3ccc(Cl)cc3)nc3ccccc23)c(C(N)=O)c1C, the EC50 [4] is reported as 15.3 µM (active) and the EC50 [5] is reported as 17.3 µM (active).

In the case of Cc1ccc(S(=O)(=O)NNC(=O)NC23CC4CC(CC(C4)C2)C3)cc1, the AC50 [3] is reported as 1.02 µM (active).
